Source: US20230257373A1, “QUORUM SENSING INHIBITORS AND METHODS OF USE” (priority 2020, published 2023)
Like-named read-outs stand apart in the source and are kept apart here.

Columns and labels:
HapR = assay: E. coli bioassay expressing HapR (IPTG-inducible plasmid); assay type: cell-based, V. cholerae
Text: We hypothesized that there were several possible reasons for the observed difference in PTSP inhibition in the various Vibrio species, including but not limited to: 1) differences in LuxR-inhibitor interaction(s), 2) differences in diffusion of the inhibitor across the membranes, or 3) stability of the inhibitor in the cell and/or cell culture. To examine PTSP activity in a common strain background, we cloned the luxR gene from each Vibrio species into a plasmid under control of an IPTG-inducible promoter and assayed the effect of PTSP against these proteins in the E. coli bioassay. […] We conclude that the differences in PTSP activity in Vibrio species is due to differences in interaction between PTSP and the LuxR-type protein in each Vibrio.
We therefore sought to determine if any of the four residues that differ between HapR and LuxR/SmcR in the putative ligand binding pocket are sufficient to render SmcR insensitive to PTSP. First, we introduced substitutions in SmcR to mimic the amino acid sequence of HapR: F75Y, I96L, […], and C170F. […] Next, we introduced single substitutions in HapR to mimic the amino acid present in SmcR: Y76F, L97I, I141V, and F171C.
In E. coli assays expressing the five different LuxR-type proteins (luxR, smcR, opaR, vcpR, hapR), slight changes to the protocol were implemented. The luxR genes were cloned under control of the IPTG-inducible Ptac promoter in plasmid pMMB67EH-kanR. […] Strains expressing hapR or smcR required 50 μM IPTG to observe activation of the GFP reporter; IPTG was not added to strains expressing luxR, vcpR, or opaR.

SmcR = SmcR (Vibrio vulnificus, UniProt Q9L8G8); assay: EMSA DNA binding activity of SmcR; assay type: biochemical, V. vulnificus; conditions: saturating concentrations
Description: We noted that Qstatin and PTSP are both predicted to bind in the putative ligand binding pocket of SmcR. It is currently unknown how Qstatin allosterically affects DNA binding through its interactions in the ligand binding domain. […] We therefore also assessed the effect of sulfonamide PTSP on the DNA binding activity of LuxR and SmcR in vitro. […] (Kim et al., 2018).
(§1) SmcR and LuxR were purified as described previously. EMSAs were conducted as described previously using oligonucleotides corresponding to the luxC and vvpE promoter sequences. ITC analysis was conducted using purified LuxR or His-tagged SmcR, each in gel-filtration buffer (25 mM Tris pH 7.5, 300 mM NaCl, 0.5 mM EDTA, 1 mM DTT, 2% DMSO). All molecules analyzed were diluted in the same buffer. The samples were degassed for 10 min by vacuum aspiration. Titrations were performed on a Nano-ITC (TA Instruments). […] Thermograms were analyzed using NanoAnalyze software with the independent binding model.

V. campbellii LuxR = molecular target: T1, V. campbellii LuxR (Vibrio harveyi, UniProt P21308); assay: qRT-PCR and western blots in wild-type V. campbellii; assay type: cell-based
T1 construct: expressed in transfected cells; host or cells: E. coli DH10B with pKM699 and reporter pJV064
Text: The Qstatin-treated regulon overlapped with the SmcR regulon by more than 50%, with similar gene expression fold-changes. […] This is important to note because LuxR and HapR proteins are known to autorepress their own expression. To test the effects of adding inhibitors to V. campbellii LuxR, we added 10A, 10B, and 10C to wild-type V. campbellii and used qRT-PCR and western blots to examine the effects on luxR transcript and protein levels. We also examined the transcript levels for luxC and 05222 genes that are directly activated or repressed by LuxR, respectively.
All PCR reactions were performed using Phusion HF polymerase (NEB). T4 polynucleotide kinase (T4 PNK) used in EMSAs and all other enzymes were purchased from NEB and used according to manufacturer's instructions. Site-directed mutagenesis for construction of plasmids expressing mutant proteins was carried out using the Agilent QuikChange II XL Site-Directed Mutagenesis Kit. All oligonucleotides were purchased from Integrated DNA Technologies (IDT).ALL plasmid constructs were confirmed by DNA sequencing (Eurofins). Cloning details for plasmids are available upon request. Western blot analysis was performed as previously described (van Kessel et al., 2013b), except that new anti-LuxR antibodies were generated through Cocalico against purified LuxR protein. In addition, the western blots were probed with anti-RpoB (Neoclone).
Then cells were induced with 50 μM IPTG and grown under the same conditions until cells reached an OD600 of approximately 1, at which 5 mL of cells were collected by centrifugation and frozen in liquid N2. RNA was extracted using a Trizol/chloroform extraction protocol previously described (Rutherford et al., 2011). Quantitative real-time PCR (qRT-PCR) was performed as previously described (Chaparian et al., 2016). Samples were normalized to the internal standard hfq gene. The ΔΔCT values were used to analyze data from three independent biological replicates. Symbols on graphs represent the mean values and error bars represent the standard deviations. All statistical analysis was performed with functions from GraphPad Prism version 8.

[1] = tested on: PluxC-gfp reporter in V. vulnificus; assay: PluxC-gfp reporter in V. vulnificus strains; conditions: Vibrio vulnificus
[2] = tested on: V. campbellii protease activity; assay: Protease assay (azocasein) in V. campbellii; conditions: 2.5 μM PTSP vs DMSO
LuxR = LuxR (Vibrio harveyi, UniProt P21308); assay: ITC analysis of LuxR interaction with inhibitors; assay type: binding, V. campbellii; design: made in house; host or cells: E. coli BL21(DE3)
Text: To test the validity of the modelling predictions for PTSP, we performed isothermal titration calorimetry (ITC) to determine the binding affinity of SmcR and LuxR for PTSP. […] We noted that PTSP binding to both LuxR and SmcR had lower entropy and enthalpy compared to SmcR binding to Qstatin. […] Thus, we conclude that the efficacy of PTSP inhibition in vivo in these two Vibrio species correlates to the binding affinity determined in vitro for these two proteins.
as §1

[3] = tested on: PluxC-gfp reporter in V. parahaemolyticus; assay: PluxC-gfp reporter in V. parahaemolyticus strains; conditions: Vibrio parahaemolyticus

For `O=S(=O)(c1cccs1)n1ccc(-c2ccccc2)n1` [Compound 10B], the “Inhibition of HapR in E. coli bioassay” value (HapR; 25 μM PTSP) was “unresponsive”, the “Inhibition of HapR single substitutions” value (HapR; HapR Y76F, L97I, I141V, F171C, each alone) was “none of these substitutions alone were sufficient to make HapR sensitive” and the “Inhibition of HapR Y76F and F171C combination” value (HapR; combination of Y76F and F171C) was “did not result in PTSP inhibition”. For the same compound, the “DNA binding to SmcR” value (SmcR) was “did not alter DNA binding”, the luxC transcripts (V. campbellii LuxR; qRT-PCR, to levels in a ΔluxR strain) was “significantly decreased” and the 05222 transcripts (V. campbellii LuxR; qRT-PCR, wild-type cultures) was “significantly increased”. For the same compound, the LuxR protein level (V. campbellii LuxR; western blot, wild-type V. campbellii) was “visible increase”, the IC50 ([1]; ATCC27562, read-out: IC50, V. vulnificus ATCC 27562, luxCDABE reporter plasmid) was 40 nM and the IC50 ([1]; ATCC27562, read-out: Inhibition (IC50) of the PluxC-gfp reporter, Vvul ATCC 27562) was 1.96 nM. The IC50 ([1]; read-out: IC50, V. vulnificus, b235) was 2 nM, the IC50 ([1]; read-out: IC50 values for all three V. vulnificus clinical isolates, three clinical isolates) was 2 to 30 nM and the IC50 ([1]; read-out: Inhibition (IC50) of the PluxC-gfp reporter, Vvul CMPC6) was 29.5 nM. The IC50 ([1]; read-out: Inhibition (IC50) of the PluxC-gfp reporter, Vvul YJ016) was 3.78 nM, the “Protease activity of wild-type strain” value [2] was “significantly reduced protease activity” and the Ka (LuxR) was 2.3e+06 M⁻¹. For the same compound, the ΔG (LuxR) was -8.626 kcal/mol, the ΔH (LuxR) was -32.529 kcal/mol and the ΔS (LuxR) was −335.40 J/mol · K. The “−TΔS” value (LuxR) was 23.9 kcal/mol, the Kd (LuxR; 25° C.) was 513 nM and the IC50 ([3]; read-out: IC50, V. parahaemolyticus RIMD2210633, luxCDABE reporter plasmid) was 280 nM. The IC50 ([3]; read-out: Inhibition (IC50) of the PluxC-gfp reporter, Vpara 12-297/B) was 320 nM, the IC50 ([3]; read-out: Inhibition (IC50) of the PluxC-gfp reporter, Vpara D4) was 270 nM and the IC50 ([3]; read-out: Inhibition (IC50) of the PluxC-gfp reporter, Vpara RIMD 2210633) was 170 nM.
